Tests used:
Assay type in all cases: in vivo, C57BL/6J mice
[1] = system: mice with high-fat diet-induced obesity; experiment: Fatty liver manifestations (plasma ALT, liver weight, hepatic steatosis on H&E liver sections) in high-fat diet-fed mice; settings: 4 mg/kg i.p. once daily for 4 weeks
Description: (§1) Experiments with male C57BL/6J mice (5-6 month old, Jackson Lab) were performed in accordance with the NIH Guidelines under protocols approved by the IACUC Committee of the Feinstein Institute for Medical Research, North Shore-LIJ Health System, Manhasset, N.Y., USA.
(§2) C57BL/6J mice were initially fed a regular chow for 10 days and then switched to a high-fat diet (D12492, 60% kcal from fat, shown in FIG. 2) or its corresponding low-fat control diet (D12450B, 10% kcal from fat, shown in FIG. 1) (Research Diets, New Brunswick, N.J.) for 12 weeks. After the first 8 weeks mice on the high-fat diet were divided into 2 groups and treated with saline (i.p. once daily) or galantamine (Galanthamine Hydrobromide, EMD Biosciences, Inc., La Jolla, Calif., USA) (4 mg/kg, i.p., once daily) for the remaining 4 weeks of the study. In parallel, mice on the low-fat (control) diet were treated with saline. Body weight and food intake were determined on a weekly basis by trained personnel of the Center for Comparative Physiology at the Feinstein Institute, who were blinded to treatment groups. At the end of the experimental time period mice were euthanized and abdominal adiposity, liver weight, cytokine and adipokine levels, metabolic profile, insulin resistance, and liver histology were evaluated. In a separate experiment, groups of mice were fed and treated and body weights and food intake recorded as described above. […]
(§3) Plasma samples were sent to Millipore and plasma insulin, leptin, MCP-1, PAI-1, resistin, TNF and IL-6 levels were determined by using the Millipore's MILLIPLEX map mouse adipokine panel assay with the following detection sensitivity limits: leptin 16.71 pg/mL; resistin 1.79 pg/mL; IL-6 1.89 pg/mL; TNF 4.39 pg/mL; MCP-1 14.4 pg/mL; PAI-1 16.4 pg/mL, insulin 42.2 pg/mL. Plasma samples were sent to IDEXX and plasma levels of total cholesterol and ALT were determined by using IDEXX's Olympus analyzers and spectrophotometric determination. Plasma adiponectin was measured by using the mouse adiponectin/Acrp30 immunoassay (R&D Systems) according to the manufacturer's recommendations.
Formalin fixed liver tissue was imbedded in paraffin, sliced and then liver tissue sections were subjected to hematoxylin and eosin (H&E) staining and microscopic slides prepared. Hepatic steatosis was determined by microscopic evaluation of H&E stained liver sections for lipid accumulation by using Zeiss apotome and semi-quantified by applying a previously implemented grading criteria: no fat accumulation (grade 0); less than 33% fat-containing hepatocytes (grade 1); less than 66% fat-containing hepatocytes (grade 2); more than 66% fat-containing hepatocytes (grade 3).

[2] = system: mice with high-fat diet-induced obesity; experiment: Insulin sensitivity test (IST) in high-fat diet-fed mice
Description: (§4) Separate groups of mice were fed and treated and body weights and food intake recorded as described above (in Experimental design). At the end of the 12 week period, mice from the three experimental groups were used in the insulin sensitivity and glucose tolerance tests. In the insulin sensitivity test, after an overnight (18 hours) fast, mice (n=10 per group) were weighed and administered i.p. with insulin (Humulin R, Lilly, 0.5 units/kg). In the glucose tolerance test, after an overnight (21 hours) fast, mice (n=10 per group) were weighed and injected i.p. with glucose (10% D glucose solution, Sigma, 1 g/kg). Glucose levels were determined at 0, 15, 30, 60, and 120 min after insulin or glucose administration in blood from the tail vein by using the Contour blood glucose meter (Bayer, Elkhart, Ind.) with Contour blood glucose test strips.

[3] = system: mice with high-fat diet-induced obesity; experiment: Fasting blood glucose, plasma insulin, HOMA-IR and plasma total cholesterol in high-fat diet-fed mice; settings: 4 mg/kg i.p. once daily for 4 weeks, HFD-G vs HFD-S mice
Description: (§5) C57BL/6J mice were initially fed a regular chow for 10 days and then switched to a high-fat diet (D12492, 60% kcal from fat, shown in FIG. 2) or its corresponding low-fat control diet (D12450B, 10% kcal from fat, shown in FIG. 1) (Research Diets, New Brunswick, N.J.) for 12 weeks. After the first 8 weeks mice on the high-fat diet were divided into 2 groups and treated with saline (i.p. once daily) or galantamine (Galanthamine Hydrobromide, EMD Biosciences, Inc., La Jolla, Calif., USA) (4 mg/kg, i.p., once daily) for the remaining 4 weeks of the study. In parallel, mice on the low-fat (control) diet were treated with saline. Body weight and food intake were determined on a weekly basis by trained personnel of the Center for Comparative Physiology at the Feinstein Institute, who were blinded to treatment groups. At the end of the experimental time period mice were euthanized and abdominal adiposity, liver weight, cytokine and adipokine levels, metabolic profile, insulin resistance, and liver histology were evaluated. In a separate experiment, groups of mice were fed and treated and body weights and food intake recorded as described above. At the end of the experimental time period mice were subjected to the insulin sensitivity test or the glucose tolerance test as described below.
Blood glucose during the study was measured by nicking the tails and using the Contour blood glucose meter (Bayer, Elkhart, Ind.) with Contour blood glucose test strips according to the manufacturer's recommendations. After blood collection the cuts were compressed with sterile gauze until bleeding termination.
as §3
Insulin resistance was evaluated by using glucose and insulin level values and by applying the homeostatic model assessment-insulin resistance (HOMA-IR) formula, presented in Mlinar et al. (2007) Molecular mechanisms of insulin resistance and associated diseases. Clin Chim Acta 375:20-35, the relevant teachings of which is incorporated herein by reference. Specifically, the expression used to evaluate insulin resistance is: HOMA index=insulin (mU/L)×[glucose (mmol/L)/22.5] […]

[4] = system: mice with high-fat diet-induced obesity; experiment: Plasma cytokine/adipokine levels in high-fat diet-fed mice (MILLIPLEX mouse adipokine panel; adiponectin immunoassay); settings: 4 mg/kg i.p. once daily for 4 weeks
Description: as §5
(§6) After an overnight fast and following body weight and blood glucose determination mice were euthanized by CO2 asphyxiation. Heparinized blood was obtained by cardiac puncture and centrifuged within 30 min at 5,000 rpm for 10 min. Visceral adipose tissues and liver were harvested, rinsed with saline, and weighed. One piece of liver (the biggest lobe) was fixed in formalin for further H&E staining. Plasma and visceral fats (were frozen on dry ice) were transferred at −20° C. prior to further manipulations.
as §3

[5] = system: mice with high-fat diet-induced obesity; experiment: Separate experiment: body weight and food intake in high-fat diet-fed mice before IST and GTT; settings: 4 mg/kg i.p. once daily for 4 weeks
Description: as §2
Separate groups of mice were fed and treated and body weights and food intake recorded as described above (in Experimental design). […]

[6] = system: mice with high-fat diet-induced obesity; experiment: Glucose tolerance test (GTT) in high-fat diet-fed mice; settings: HFD-G as compared to HFD-S mice
Description: as §4

[7] = system: mice with high-fat diet-induced obesity; experiment: Body weight, food intake and abdominal adiposity in high-fat diet-fed mice; settings: for body weight: 4 mg/kg i.p. once daily, FIG. 3A
Description: as §1, §5, §6

[8] = 4 mg/kg i.p. once daily for 4 weeks, HFD-G group, Table 1 in FIG. 4

COc1ccc2c3c1O[C@H]1C[C@@H](O)C=C[C@@]31CCN(C)C2 [galantamine]
hepatocyte fat accumulation (steatosis), microscopic observations ([1]; HFD-G mice, H&E liver sections, FIG. 9): decreased lipid accumulation | liver weight ([1]; HFD-G vs HFD-S mice, FIG. 7B): significant liver weight decrease | plasma alanine aminotransferase (ALT) levels ([1]; HFD-G vs HFD-S mice, end of 12 week study, FIG. 7A): significantly decreased | lipid accumulation in livers, semi-quantitative analysis ([1]; HFD-G vs HFD-S mice, steatosis grade 0-3, FIG. 10): significantly reduced | blood glucose levels in IST at 15 min and 30 min ([2]; HFD-G as compared to HFD-S mice, insulin 0.5 units/kg i.p. after overnight fast): significantly lower | blood glucose levels in IST at 120 min ([2]; HFD-G as compared to LFD-S mice, insulin 0.5 units/kg i.p. after overnight fast): significantly lower | time of lowest blood glucose levels in IST ([2]; HFD-G mice after insulin 0.5 units/kg i.p., unchanged at 60 min, increased at 120 min, FIG. 12): 30 min | fasting blood glucose levels ([3]; FIG. 6A): significantly reduced | plasma insulin levels ([3]; FIG. 6B): significantly reduced | plasma total cholesterol levels ([3]; FIG. 6D): significantly decreased | insulin resistance (HOMA-IR) ([3]; calculated from glucose and insulin, FIG. 6C): reversed this insulin resistance | plasma TNF levels ([4]; HFD-G group, no value above the assay sensitivity limit): < 4.39 pg/mL | plasma MCP-1 levels ([4]; HFD-G mice, FIG. 5C): significantly reduced | plasma IL-6 levels ([4]; HFD-G vs HFD-S mice, FIG. 5A): significantly reduced | plasma leptin levels ([4]; HFD-G vs HFD-S mice, FIG. 5B): significantly reduced | plasma resistin levels ([4]; HFD-G vs HFD-S mice, FIG. 5D): significantly lowered | plasma adiponectin levels ([4]; HFD-G vs HFD-S mice, FIG. 5F): a certain increase | plasma plasminogen activator inhibitor-1 (PAI-1) levels ([4]; HFD-S higher than LFD-S and HFD-G mice, FIG. 5E): none of these differences were statistically significant | body weight ([5]; HFD-G mice, while HFD-S continued to increase, FIG. 11A): decreased | food intake ([5]; HFD-G vs HFD-S group, FIG. 11B): significantly lower | area under the curve of the GTT data ([6]; FIG. 13B): significantly lower | blood glucose levels in GTT ([6]; glucose 1 g/kg i.p. after overnight fast, FIG. 13A): suppressed blood glucose levels | mesenteric adipose tissue weight [7, 8]: significantly reduced | retroperitoneal/perirenal adipose tissue weight [7, 8]: significantly reduced | food intake ([7]; 4 mg/kg i.p. once daily for 4 weeks, HFD-G vs HFD-S group during treatment, FIG. 3B): additional suppression of food intake | body weight ([7]; HFD-G mice at week 9 as compared to week 8, then sustained): lower after the first week of treatment | body weight ([7]; HFD-G vs HFD-S mice at weeks 11 and 12): lower than the weight of HFD-S mice

Source: patent publication US8865641B2, “Methods of treatment of fatty liver disease by pharmacological activation of cholinergic pathways” (priority 2011, dated 2014)
